Here are results for 2 molecules from BindingDB's records for doi:10.1016/j.bmcl.2004.05.049 (Procyon Biopharma, 2004).

The assay has as its target T1, Dimer of Gag-Pol polyprotein [501-599] (Human immunodeficiency virus 1, UniProt P03367).
T1 construct: 501-599
Put plainly: Protease Inhibition Assay. Conditions: pH 4.7; 30 °C. The method, then:
HIV-1 protease activity was measured by a continuous fluorometric assay using the internally quenched fluorogenic substrate DABCYL-Ser-Gln-Asn-Tyr-Pro-Ile-Val-Gln-EDANS. The proteolytic activity can be monitored by the increase in fluorescence intensity, and the protease products were analyzed by HPLC.

SMILES strings stand for the structures. A value given as a limit tells only on which side of the number the result lay.

For orientation: Ki means the equilibrium dissociation constant of an inhibitor or competing ligand from its target. Higher therefore signals weaker binding. Take `Cc1ccc(S(=O)(=O)N(CC(C)C)[C@@H](CCCCNC(=O)NCc2ccccn2)C(=O)O)cc1` [(2S)-2-[(4-methylbenzene)(2-methylpropyl)sulfonamido]-6-{[(pyridin-2-ylmethyl)carbamoyl]amino}hexanoic acid]: the inhibition constant (Ki) was above 300 nM.
For `Cc1ccc(S(=O)(=O)N(CC(C)C)[C@@H](CCCCNC(=O)N(CCc2ccccc2)Cc2ccccc2)C(=O)O)cc1` [(2S)-6-{[benzyl(2-phenylethyl)carbamoyl]amino}-2-[(4-methylbenzene)(2-methylpropyl)sulfonamido]hexanoic acid] the value was above 300 nM.
